# Experimental data taken from the supplement of paper PMC10307832.
# Legend:
# Assay in all cases: relative viability (nuclei count vs DMSO), 5 days (fraction); higher = more cells survive
# JZL-184 + Vorinostat = compound: C1CN(CCC1C(C2=CC3=C(C=C2)OCO3)(C4=CC5=C(C=C4)OCO5)O)C(=O)OC6=CC=C(C=C6)[N+](=O)[O-] [JZL-184] + O=C(CCCCCCC(=O)Nc1ccccc1)NO [Vorinostat] (partner 1 µM)
# Procedure, shortened: (§1)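 Cells from lung cancer lines were seeded into 1536-well plates and, one day later, dosed by pin tool. Treatments were either a single drug or a fixed dose of an anchor drug with five library-drug doses (not always all listed) in √10 steps. After 5 days, nuclei were stained in a one-step fixation (final 0.05% Triton X-100, 1% formaldehyde, 1 ug/ml Hoechst) and counted on 4× images, and relative viability is the treated-to-vehicle nuclei ratio, as the median of duplicate plates.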
# JZL-184 + Alpelisib = compound: C1CN(CCC1C(C2=CC3=C(C=C2)OCO3)(C4=CC5=C(C=C4)OCO5)O)C(=O)OC6=CC=C(C=C6)[N+](=O)[O-] [JZL-184] + Cc1nc(NC(=O)N2CCC[C@H]2C(N)=O)sc1-c1ccnc(C(C)(C)C(F)(F)F)c1 [Alpelisib] (partner 2 µM)
# Procedure, shortened: as §1
# JZL-184 + Decitabine = compound: C1CN(CCC1C(C2=CC3=C(C=C2)OCO3)(C4=CC5=C(C=C4)OCO5)O)C(=O)OC6=CC=C(C=C6)[N+](=O)[O-] [JZL-184] + Nc1ncn([C@H]2C[C@H](O)[C@@H](CO)O2)c(=O)n1 [Decitabine] (partner 2 µM)
# Procedure, shortened: as §1
# JZL-184 + Olaparib = compound: C1CN(CCC1C(C2=CC3=C(C=C2)OCO3)(C4=CC5=C(C=C4)OCO5)O)C(=O)OC6=CC=C(C=C6)[N+](=O)[O-] [JZL-184] + O=C(c1cc(Cc2n[nH]c(=O)c3ccccc23)ccc1F)N1CCN(C(=O)C2CC2)CC1 [Olaparib] (partner 8 µM)
# Procedure, shortened: as §1
# JZL-184 + Pemetrexed = compound: C1CN(CCC1C(C2=CC3=C(C=C2)OCO3)(C4=CC5=C(C=C4)OCO5)O)C(=O)OC6=CC=C(C=C6)[N+](=O)[O-] [JZL-184] + Nc1nc2[nH]cc(CCc3ccc(C(=O)N[C@@H](CCC(=O)O)C(=O)O)cc3)c2c(=O)[nH]1 [Pemetrexed] (partner 0.2 µM)
# Procedure, shortened: as §1
Cell Line,relative viability (JZL-184 + Vorinostat; first compound 0.04 µM),relative viability (JZL-184 + Vorinostat; first compound 0.4 µM),relative viability (JZL-184 + Vorinostat; first compound 1.265 µM),relative viability (JZL-184 + Vorinostat; first compound 4 µM),relative viability (JZL-184 + Alpelisib; first compound 0.04 µM),relative viability (JZL-184 + Alpelisib; first compound 0.4 µM),relative viability (JZL-184 + Alpelisib; first compound 1.265 µM),relative viability (JZL-184 + Alpelisib; first compound 4 µM),relative viability (JZL-184 + Decitabine; first compound 0.04 µM),relative viability (JZL-184 + Decitabine; first compound 0.4 µM),relative viability (JZL-184 + Decitabine; first compound 1.265 µM),relative viability (JZL-184 + Decitabine; first compound 4 µM),relative viability (JZL-184 + Olaparib; first compound 0.04 µM),relative viability (JZL-184 + Olaparib; first compound 0.4 µM),relative viability (JZL-184 + Olaparib; first compound 1.265 µM),relative viability (JZL-184 + Olaparib; first compound 4 µM),relative viability (JZL-184 + Pemetrexed; first compound 0.04 µM),relative viability (JZL-184 + Pemetrexed; first compound 0.4 µM),relative viability (JZL-184 + Pemetrexed; first compound 1.265 µM),relative viability (JZL-184 + Pemetrexed; first compound 4 µM)
NCI-H727,1.26,1.14,1.08,1.05,0.539,0.627,0.542,0.629,0.928,0.663,0.626,1.13,0.661,0.723,0.747,0.552,,,,
ChaGo-K-1,0.79,0.726,0.751,0.679,,,,,0.505,0.498,0.514,0.526,0.485,0.411,0.447,0.41,0.262,0.257,0.256,0.266
NCI-H1703,,,,,0.335,0.295,0.389,0.294,,,,,0.521,0.434,0.576,0.426,,,,
NCI-H2228,0.898,0.572,0.639,0.703,0.894,0.726,0.709,0.789,,,,,1.13,0.613,0.915,0.977,0.397,0.336,0.38,0.337
NCI-H1650,0.715,0.541,0.604,0.561,,,,,0.405,0.464,0.471,0.425,0.867,0.72,0.87,0.74,0.341,0.391,0.366,0.354
NCI-H1792,,,,,0.835,0.613,0.762,0.757,0.668,0.503,0.529,0.597,0.349,0.304,0.465,0.432,1.05,0.699,1.1,0.812
NCI-H1563,,,,,0.934,0.964,0.899,0.914,,,,,,,,,0.851,0.776,0.821,0.739
IA-LM,0.893,0.988,0.965,0.989,0.991,0.526,0.886,0.744,,,,,0.987,0.737,0.827,0.82,,,,
CAL-12T,0.86,0.805,0.88,0.717,1.5,1.39,1.08,1.17,,,,,0.836,0.701,0.786,0.777,1.4,0.997,1.22,1.08
